Counter-ions that a name gives are not always drawn. Like-named read-outs stand apart in the source and are kept apart here.
How the values were obtained:
μ-opioid receptors = biological target: T1, μ-opioid receptors (Rattus norvegicus, UniProt P33535); test: Opioid receptor binding studies with [3H]DAMGO on rat's brain homogenisates
T1 construct: from tissue; host or cells: rat brain homogenate

rats = test: Analgesia test (rat tail flick test); assay type: in vivo; conditions: for sc/icv: ratio of tail flick ED50 sc to icv; for Analgesic effect (in percent) after 10 minutes / Analgesic effect (in percent) after 20 minutes / Analgesic effect (in percent) after 30 minutes / Analgesic effect (in percent) after 60 minutes / Analgesic effect (in percent) after 120 minutes / Analgesic effect (in percent) after 180 minutes: 3 0.5 μg/rat, 4 0.25 μg/rat, rats 120 g; for Analgesic effect (in percent) after 10 minutes / Analgesic effect (in percent) after 20 minutes / Analgesic effect (in percent) after 30 minutes / Analgesic effect (in percent) after 60 minutes / Analgesic effect (in percent) after 120 minutes: morphine 50 μg/rat
Experimental: A test on rats was applied (“rat tail flick test”). This test was carried out as previously described (Zs. Fürst et al., Eur. J. Pharmacol. 1993, Vol. 236, pp. 209-215).

anaesthetised rats = conditions: rat, in vivo; for respiratory depression at analgesic doses (in words): sc
in vivo = conditions: rat
[1] = test system: carrageen-induced hyperalgesia on the right hind paw of rats; test: Randall-Selitto test (hind-paw withdrawal latency, mechanical stimulation); assay type: in vivo, rat
Experimental: The Randall-Selitto Test (L. O. Randall and J. J. Selitto, Arch. Int. Pharmacodyn. 1957, Vol. 111, pp. 409-419) was applied to study the analgesic effect on carrageen-induced hyperalgesia on the right hind paw of rats. In this way the “hind-paw withdrawal latency” (HWL; latency period for withdrawing the right hind paw) with mechanical stimulation (e.g. I. Bileviciute-Ljungar and M. Spetea, Br. J. Pharmcol. 2001, Vol. 132, pp. 252-258) is measured.

[2] = test system: rats with ligations around the ischias nerve; test: Von Frey test (mechanical allodynia); assay type: in vivo, rat
Experimental: (§1) The tests involve models to test the effect of a substance on neuropathic pain.
(§2) For both tests ligations were applied around the ischias nerve (G. J. Bennett and Y. K. Xie, Pain 1988, Vol. 33, 87-107).
A slight pressure (2 to 60 g) was exerted on the skin of the hind paw of the rats (200-250 g) using Von Frey hairs and the latency period of withdrawal of the hind paw was studied at various time intervals (5, 15, 30 and 60 minutes after the application of the substance). The substance to be investigated was applied via intraplant (ipl).

[3] = test system: rats with ligations around the ischias nerve; test: Cold water allodynia test (thermal allodynia); assay type: in vivo, rat
Experimental: as §1, §2
Thermal stimulation (cold water) was used to initiate withdrawal of the hind paw of the rats (200-300 g). After 5, 15 and 30 min (after application of the substance) the latency period of the withdrawal of the hind paw was studied (J. C. Hunter et al., Eur. J. Pharmacol., 1997, Vol. 324, 153-160). The substances to be investigated were applied via intraplant (ipl).

[4] = central, rat tail flick test, intracerebroventricular application, read-out: ED50 (μg/kg, icv)
[5] = sc, rat tail flick test, subcutaneous application, read-out: ED50 (μg/kg, sc)
[6] = 20 μg/kg, subcutaneous application
[7] = 100 μg/rat after subcutaneous application
[8] = peripherally acting opioid antagonist

T1 sequence (P33535 whole entry): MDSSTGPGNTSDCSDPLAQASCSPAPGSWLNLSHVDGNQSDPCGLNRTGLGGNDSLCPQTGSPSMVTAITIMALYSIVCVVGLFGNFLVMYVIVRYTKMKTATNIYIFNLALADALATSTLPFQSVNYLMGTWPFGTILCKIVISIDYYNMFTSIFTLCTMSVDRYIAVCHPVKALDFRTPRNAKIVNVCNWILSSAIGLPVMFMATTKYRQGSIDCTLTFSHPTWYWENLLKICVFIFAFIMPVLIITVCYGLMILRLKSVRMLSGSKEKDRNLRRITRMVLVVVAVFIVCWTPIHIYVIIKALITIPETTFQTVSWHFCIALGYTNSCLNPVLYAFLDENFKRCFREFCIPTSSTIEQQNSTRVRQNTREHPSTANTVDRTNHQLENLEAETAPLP

## CCOC(=O)CN[C@@H]1CC[C@@]2(OC)[C@H]3Cc4ccc(O)c5c4[C@@]2(CCN3C)[C@H]1O5 [Compound 23, (4,5α-epoxy-3-hydroxy-14β-methoxy-17-methylmorphinan-6β-ylamino)-acetic acid-ethylester dihydrochloride]
μ-opioid receptors
  Ki: 0.8 nM

## CO[C@@]12CC[C@H](N[C@@H](C)C(=O)O)[C@@H]3Oc4c(O)ccc5c4[C@@]31CCN(C)C2C5 [Compound 7, (2′S)-2′-(4,5α-epoxy-3-hydroxy-14β-methoxy-17-methylmorphinan-6α-ylamino)-propionic acid bis(tetrafluoroborate)]
rats; [4]
  ED50: 0.75 µg/kg
rats; rat tail flick test
  analgesic activity (in words): very high analgesic activity
rats
  sc/icv: 133
rats; [5]
  ED50: 100 µg/kg

## CO[C@@]12CC[C@H](N[C@@H](Cc3ccccc3)C(=O)O)[C@@H]3Oc4c(O)ccc5c4[C@@]31CCN(C)C2C5 [Compound 11, (2′S)-2′-(4,5α-epoxy-3-hydroxy-14β-methoxy-17-methylmorphinan-6α-ylamino)-3′-phenylpropionic acid bis(tetrafluoroborate)]
μ-opioid receptors
  Ki: 0.95 nM

## O=C(O)CN[C@@H]1CC[C@@]2(OCCCc3ccccc3)[C@H]3Cc4ccc(O)c5c4[C@@]2(CCN3CC2CC2)[C@H]1O5 [Compound 38, {17-cyclopropylmethyl-4,5α-epoxy-3-hydroxy-14β-[(3-phenylpropyl)oxy]-morphinan-6β-ylamino}acetic acid dihydrochloride]
μ-opioid receptors
  Ki: 0.24 nM

## CO[C@@]12CC[C@@H](N[C@@H](C)C(=O)O)[C@@H]3Oc4c(O)ccc5c4[C@@]31CCN(C)C2C5 [Compound 8, (2′S)-2′-(4,5α-epoxy-3-hydroxy-14β-methoxy-17-methylmorphinan-6β-ylamino)-propionic acid bis(tetrafluoroborate)]
rats; [4]
  ED50: 0.67 µg/kg
rats; rat tail flick test
  analgesic activity (in words): very high analgesic activity
rats
  sc/icv: 746
rats; [5]
  ED50: 500 µg/kg

## CO[C@@]12CC[C@H](NCC(=O)O)[C@@H]3Oc4c(O)ccc5c4[C@@]31CCN(C)C2C5 [Compound 3, (4,5α-epoxy-3-hydroxy-14β-methoxy-17-methylmorphinan-6α-ylamino)-acetic acid sesqui(trifluoroacetate)]
rats; [4]
  ED50: 0.49 µg/kg
rats; conclusion from tail flick sc/icv ratio
  passage of the blood-brain barrier (concluded from sc/icv figures): only overcome the blood-brain barrier in a very restricted manner
rats; icv
  Analgesic effect (in percent) after 10 minutes: 46%
  Analgesic effect (in percent) after 20 minutes: 62%
  Analgesic effect (in percent) after 30 minutes: 59%
  Analgesic effect (in percent) after 60 minutes: 100%
  Analgesic effect (in percent) after 120 minutes: 100%
  Analgesic effect (in percent) after 180 minutes: 90%
rats; rat tail flick test
  analgesic activity (in words): very high analgesic activity
rats
  sc/icv: 176
rats; [5]
  ED50: 86 µg/kg
Anaesthetised rats
  respiratory depression at analgesic doses (in words): not able to initiate a respiratory depression
In vivo
  ED50: 0.00083 mg/kg
In vivo; sc
  ED50: 1 mg/kg

## CO[C@@]12CC[C@@H](NC(=NC(=O)OC(C)(C)C)NC(=O)OC(C)(C)C)[C@@H]3Oc4c(O)ccc5c4[C@@]31CCN(C)C2C5 [Compound 16]
μ-opioid receptors; [3H]DAMGO as radio-ligand, rat's brain homogenisates, read-out: Ki (nM) (μ-receptors)
  Ki: 0.61 nM

## CO[C@@]12CC[C@@H](NC(=N)N)[C@@H]3Oc4c(O)ccc5c4[C@@]31CCN(C)[C@@H]2C5 [Compound 17, 4,5α-epoxy-6β-guanidinyl-14β-methoxy-17-methylmorphinan-3-ol dihydrochloride]
μ-opioid receptors
  Ki: 0.25 nM

## CO[C@@]12CC[C@@H](N)[C@@H]3Oc4c(O)ccc5c4[C@@]31CCN(C)[C@@H]2C5
other
  melting point: > 235 °C

## CCOC(=O)CN[C@@H]1CC[C@@]2(OC)[C@H]3Cc4ccc(O)c5c4[C@@]2(CCN3C)[C@H]1O5 (as salt: hydrochloride) [Compound 23, (4,5α-epoxy-3-hydroxy-14β-methoxy-17-methylmorphinan-6β-ylamino)-acetic acid-ethylester dihydrochloride]
other
  melting point: > 200 °C

## CN1CC[C@]23c4c5ccc(O)c4O[C@H]2[C@@H](O)C=C[C@H]3[C@H]1C5 [Morphine, morphine, reference compound]
rats; [4]
  ED50: 100 µg/kg
rats; icv
  Analgesic effect (in percent) after 10 minutes: 57%
  Analgesic effect (in percent) after 20 minutes: 91%
  Analgesic effect (in percent) after 30 minutes: 74%
  Analgesic effect (in percent) after 60 minutes: 59%
  Analgesic effect (in percent) after 120 minutes: 20%
rats
  sc/icv: 19
rats; [5]
  ED50: 1900 µg/kg
Anaesthetised rats
  sc/icv: 34
In vivo
  ED50: 0.083 mg/kg
In vivo; sc
  ED50: 2.8 mg/kg

## CO[C@@]12CC[C@@H](NCC(=O)O)[C@@H]3Oc4c(O)ccc5c4[C@@]31CCN(C)C2C5 [Compound 4, (4,5α-epoxy-3-hydroxy-14β-methoxy-17-methylmorphinan-6β-ylamino)-acetic acid sesqui(trifluoroacetate)]
rats; [4]
  ED50: 0.42 µg/kg
rats; icv
  Analgesic effect (in percent) after 10 minutes: 61%
  Analgesic effect (in percent) after 20 minutes: 74%
  Analgesic effect (in percent) after 30 minutes: 76%
  Analgesic effect (in percent) after 60 minutes: 100%
  Analgesic effect (in percent) after 120 minutes: 100%
  Analgesic effect (in percent) after 180 minutes: 90%
rats; rat tail flick test
  analgesic activity (in words): very high analgesic activity
rats; rat tail flick test, icv, relative to morphine
  times as active as morphine after intracerebroventricular application (icv): 238 times
rats; rat tail flick test, sc, relative to morphine
  times as active as morphine after subcutaneous application (sc): 68 times
rats
  sc/icv: 67
rats; [5]
  ED50: 28 µg/kg
[1]; [6]
  analgesic activity (rise in HWL of at least 100% taken as significant): significant analgesic activity
  duration of analgesic effect: approx. 14 hours
[1]; conclusion from the Randall-Selitto test
  passage of the blood-brain barrier (concluded from naloxone methiodide antagonism): cannot overcome the blood-brain barrier
[2]; [7]
  anti-allodynic activity (rise of at least 100% in latency of hind paw withdrawal taken as significant): significant anti-allodynic activity
[2]; [8]
  anti-allodynic effect after naloxone methiodide (ipl): completely neutralise
[3]; [7]
  anti-allodynic activity (rise of at least 100% in latency of hind paw withdrawal taken as significant): significant anti-allodynic activity
[3]; [8]
  anti-allodynic effect after naloxone methiodide (ipl): completely neutralise
Anaesthetised rats
  respiratory depression at analgesic doses (in words): not able to initiate a respiratory depression
In vivo
  ED50: 0.00042 mg/kg
In vivo; sc
  ED50: 0.5 mg/kg

## CO[C@@]12CCC(NCC(=O)OC(C)(C)C)[C@@H]3Oc4c(O)ccc5c4[C@@]31CCN(C)C2C5 (stereo in doubt) [Compound 2, (4,5α-epoxy-3-hydroxy-14β-methoxy-17-methylmorphinan-6β-ylamino)-acetic acid-tert.-butylester]
μ-opioid receptors
  Ki: 1.3 nM

## CCOC(=O)CN[C@H]1CC[C@@]2(OC)[C@H]3Cc4ccc(O)c5c4[C@@]2(CCN3C)[C@H]1O5 [Compound 22, (4,5α-epoxy-3-hydroxy-14β-methoxy-17-methylmorphinan-6α-ylamino)-acetic acid-ethylester dihydrochloride]
μ-opioid receptors
  Ki: 0.21 nM

## CO[C@@]12CC[C@H](NCC(=O)OC(C)(C)C)[C@@H]3Oc4c(O)ccc5c4[C@@]31CCN(C)[C@@H]2C5 [Compound 1, (4,5α-epoxy-3-hydroxy-14β-methoxy-17-methylmorphinan-6α-ylamino)-acetic acid-tert.-butylester]
μ-opioid receptors
  Ki: 0.48 nM

Reference: patent publication US20090209570A1 (priority 2001, published 2009)
